Assay results reported in patent publication US9123099B2, “Systems with workstations and circuits for generating images of global injury” (Wake Forest University Health Sciences, priority 2004, dated 2015).

Experiments:
[1] = tested on: left ventricle myocardium; experiment: Cross-sectional delayed enhancement MRI/CMR study of gadolinium contrast uptake, voxel intensity and auto-correlation; assay type: in vivo, human
Excerpt: In particular embodiments of the present invention, a patient may be taken to the MRI suite where he/she will be placed supine on the MRI table and ECG leads and respiratory gating bellows applied. MRI scans may be performed on, for example, a 1.5 Tesla GE CVi scanner with a phased array surface coil applied around the chest to optimize signal to noise ratio, or another MRI scanner. Images may be acquired using a fast gradient echo technique, with the repetition time (TR) and echo time (TE) based on the R-R interval of the subject. Multislice coronal, gradient echo sequences may be used to obtain scout images of the chest and locate the left ventricle. Subjects may be injected intravenously with a gadolinium contrast agent (0.2 mmole/kg Gadoteridol (Prohance, Bracco Diagnostics, Princeton, N.J.)). The time of this injection may be recorded.
However, this method may not be as well suited for a process that causes necrosis to susceptible tissue throughout the LV myocardium in a randomly distributed pattern (e.g. a global injury). To overcome this limitation, voxels, and in some embodiments all the voxels, within three short axis slice positions (apex, middle, and base) within the LV may be sampled and the intensity and x, y, and z coordinates of each voxel identified in 3-dimensional space (FIG. 6). FIG. 6 is a 3-Dimensional depiction of 3 short axis (basal, middle, and apical) planes of the left ventricle. […] During analysis, the image intensity of each voxel and the x, y, and z coordinates are recorded. […]
Correction for variations in the intensity of voxels in the images may also be identified by determining the intensity of voxels within a target region, typically, a 1 cm diameter circular ROI placed outside the heart. For each apical, middle, and basal slice, the number of pixels at a given intensity may be determined and the intensity from the ROI external to the heart subtracted from the pixels. In certain embodiments, for each slice, the mean intensity of all voxels and the peak voxel intensity in the highest 40% of the distribution may be determined (FIG. 6). […]

[2] = cited from earlier work

## COc1cccc2c1C(=O)c1c(O)c3c(c(O)c1C2=O)C[C@@](O)(C(=O)CO)C[C@@H]3O[C@H]1C[C@H](N)[C@H](O)[C@H](C)O1 [doxorubicin]
[1]; doxorubicin cardiomyopathy patient, middle short axis view, 20 minutes after contrast, low in healthy patient, highest in infarct patient
  mean intensity of contrast uptake in voxel histogram: intermediate
[1]; patients with cardiomyopathy due to doxorubicin, about 20 minutes after contrast
  percentage of voxel intensities in aggregate histograms vs normal age matched controls: increased percentage of intensities
[1]; patients with cardiomyopathy secondary to doxorubicin, p<0.001 vs myocardial infarction
  pattern of contrast uptake within the LV (serial auto-correlation): random
[2]; approximately 100 mg/m^2, usually at T=1 month
  patients experiencing toxicity who do so after receipt of approximately 100 mg/m^2: about 85%
[2]; patients, cumulative dose
  dose above which irreversible cardiomyopathy with serious congestive heart failure is a significant risk: 500-550 mg/m^2
[2]; report of 1487 patients studied over a seven year period
  dose that precipitates congestive heart failure: 30-880 mg/m^2
